Measured values from US12310963B2, “Pyrazole derivatives and use thereof” (Tarapeutics Science Inc., priority 2019, dated 2025).

Tests used:
[1] = test system: pulmonary arterial hypertension (PAH); test: Rat model of pulmonary arterial hypertension (PAH), monocrotaline-induced; format: in vivo; details: for mPAP, difference as compared with the vehicle group: p<0.001
Description: SCXK (SU) 2017-0001. These rats were fed with conventional pellet feeds (Jiangsu Xietong Bio. Co., Ltd.), and were raised in a clean animal room with 12h/12h light/dark cycle. The rats were fed with foods and drinking water on an ad libitum basis. The temperature was maintained at 20-26° C., and the relative humidity was 40-70%. 120 SD rats were divided into 24 cages with 5 rats per group. […] The animals were treated in strict accordance with animal ethics regulations throughout the experiment. According to the method described in “Pharmaceutical experimental animal models: Fabrication and application” and the Standard Operating Procedure for PAH Model Construction of Model Animal Center, rats were intraperitoneally injected with a solution of 1% monocrotaline (MCT, purchased from Sigma, U.S.A.) once at a dose of 35 mg/kg. On Day 7 after the first injection of MCT, MCT was injected again at a dose of 20 mg/kg. The rats in the normal control group were intraperitoneally injected with an equivalent amount of water as a blank solvent. The specific steps were as follows: After the rats in each of the cages were fasted for 8 hours, each of the rats was weighed and recorded for the basic body weight after fasting; based on the measured basic body weight for each of the rats, the amount of MCT required to be injected for each of the rats was calculated according to the modeling dose of 35 mg/kg; based on the amount of MCT required to be injected for each of the rats, the dose for injection of a 1% MCT solution was calculated; the rats were fixed in a holder and intraperitoneally injected with the 1% MCT solution at the calculated dose; the rats were returned to the cages for routine feeding after the injection. […] The blood gas analyzer was operated following the standard operation procedure. […] Each of the rats was administered by gavage once a day starting from the day of regrouping at Week 4. The rats in the negative control group were daily administered by gavage with an equal volume of methylcellulose as vehicle. The rats in each of the groups were administered by gavage for consecutive 4 weeks (i.e., 28 days). […] The rats were weighed after fasting overnight twice a week. The administration dosage was calculated based on the weighing results. […] After the rats were under anesthesia, the pulmonary arterial pressure and the right ventricular systolic pressure of rats were measured. […] The steps were as follows. A No. 3.5 umbilical vein catheter was connected to a system pressure transducer. A formulated solution of […] sodium (purchased from Sangon) was filled into the transducer and the catheter, and bubbles were discharged. The anesthetized rat was placed on a surgical anatomical plate that is adjustable in its temperature. The temperature of the plate was adjusted to be maintained at about 37° C. The rat was fixed in supine position. The neck skin was cut with scissors to the edge of the clavicle, followed by blunt dissection of subcutaneous tissues and muscles, exposing the right external jugular vein. The adipose tissue on the surface was removed with ophthalmic surgical scissors. The external jugular vein was ligated at the […] surgical thread, and a loose knot was made at the proximal end for reserve. The external jugular vein was gently lifted with ophthalmic tweezers and cut with ophthalmic scissors to make a “V” opening. The catheter was quickly inserted, and the loose knot at the proximal end was tightened slightly to prevent bleeding. […] The catheter was further inserted slowly forward, and entered into the pulmonary artery at about 5 cm. […] The blood was transferred into an anticoagulation tube, and loaded in a blood gas analyzer to determine the indexes of partial pressure of oxygen (pO2), partial pressure of carbon dioxide (pCO2) and blood oxygen saturation (SaO2) in the blood.

[2] = test system: BaF3-TEL-FGFR2 (stably expressing FGFR2 kinase); test: Growth of BaF3-TEL-FGFR2 cells, Cell Titer-Glo, 72 h; format: cell-based, mouse
Description: (§1) In this example, mouse primary B cell BaF3 (purchased from ATCC, U.S.A.) was used. In addition, in this example, mouse BaF3-tel-PDGFRα (stably expressing PDGFRα kinase), mouse BaF3-tel-PDGFRβ (stably expressing PDGFRβ kinase), BaF3-P210 (stably expressing ABL kinase), BaF3-P210-T315I (stably expressing ABL-T315I kinase), BaF3-FL-BRAF-V600E (stably expressing BRAF-V600E kinase), BaF3-TEL-cKIT (stably expressing cKIT kinase), BaF3-TEL-VEGFR2 (stably expressing VEGFR2 kinase), BaF3-TEL-FGFR2 (stably expressing FGFR2 kinase) were also used. The above-mentioned cell trains were all constructed in our laboratory by the method as follows. The sequences of human BCR-ABL (P210 or P210/T315I mutated), full-length BRAF-V600E, cKIT, VEGFR2, FGFR2, PDGFRα, PDGFRβ kinase region were amplified respectively via PCR, and inserted respectively into a MSCV-Puro vector (purchased from Clontech) having a N-terminal TEL fragment and/or NPM fragment and/or TPR fragment, and stably transferred into mouse BaF3 cells by the retroviral method, and the growth factor IL-3 was removed. Eventually, cell lines which are transferred into proteins depending on PDGFRα, PDGFRβ were obtained.
(§2) In this example, solutions of the test compound at different concentrations (0.000508 μM, 0.00152 μM, 0.00457 μM, 0.0137 μM, 0.0411 μM, 0.123 μM, 0.370 μM, 1.11 μM, 3.33 μM, 10 μM) were added to the above cells. […]

[3] = test system: BaF3-P210-T315I (stably expressing ABL-T315I kinase); test: Growth of BaF3-P210-T315I cells, Cell Titer-Glo, 72 h; format: cell-based, mouse
Description: as §1, §2

[4] = test system: BaF3-TEL-cKIT (stably expressing cKIT kinase); test: Growth of BaF3-TEL-cKIT cells, Cell Titer-Glo, 72 h; format: cell-based, mouse
Description: as §1, §2

[5] = 45 mg/kg by gavage, 28 days, P<0.001
[6] = high-dose group (45 mg/kg), P<0.001
[7] = medium-dose group (30 mg/kg), P<0.01

For Cc1ccc(NC(=O)c2cccc(C(F)(F)F)n2)cc1-n1cc(-c2cncc(N3CCN(C)CC3)c2)cn1 [Compound 1, N-(4-methyl-3-(4-(5-(4-methylpiperazin-1-yl)pyridin-3-yl)-1H-pyrazol-1-yl)phenyl)-6-(trifluoromethyl)picolinamide], the “mPAP, difference as compared with the vehicle group” value ([1]; 15 mg/kg by gavage, 28 days) was “extremely significantly different”, the “RVSP, difference as compared with the groups of imatinib and bosentan” value ([1]; 30 mg/kg by gavage, 28 days) was “no significant difference” and the “mPAP, difference as compared with the groups of bosentan and imatinib” value ([1]; 30 mg/kg by gavage, 28 days) was “no significant difference”. For the same molecule, the “RVSP, difference as compared with the vehicle group” value ([1]; 30 mg/kg by gavage, 28 days, P<0.001) was “extremely significantly different”, the “mPAP, difference as compared with the vehicle group” value ([1]; 30 mg/kg by gavage, 28 days) was “extremely significantly different” and the “RVI, difference as compared with the groups of imatinib and bosentan” value ([1]; 45 mg/kg by gavage, 28 days) was “no significant difference”. The “RVSP, difference as compared with the groups of imatinib and bosentan” value ([1]; 45 mg/kg by gavage, 28 days) was “no significant difference”, the “mPAP, difference as compared with the groups of bosentan and imatinib” value ([1]; 45 mg/kg by gavage, 28 days) was “no significant difference” and the “RVI, difference as compared with the vehicle group” value [1, 5] was “extremely significantly different”. The “RVSP, difference as compared with the vehicle group” value [1, 5] was “extremely significantly different”, the “mPAP, difference as compared with the vehicle group” value ([1]; 45 mg/kg by gavage, 28 days) was “extremely significantly different” and the “partial pressure of carbon dioxide (pCO2), difference as compared with the vehicle group” value [1, 6] was “extremely significantly different”. The “partial pressure of oxygen (pO2), difference as compared with the vehicle group” value [1, 6] was “extremely significantly different”, the “blood oxygen saturation (SaO2), difference as compared with the vehicle group” value ([1]; high-dose group (45 mg/kg), p<0.05) was “significantly different” and the “RVI decrease as compared with the negative control group” value (“RVI decrease” below) ([1]; high-dose group, 45 mg/kg by gavage, 28 days) was 29.6%. The “RVI decrease” value ([1]; low-dose group, 15 mg/kg by gavage, 28 days) was 5.5%, the “partial pressure of carbon dioxide (pCO2), difference as compared with the vehicle group” value [1, 7] was “extremely significantly different” and the “partial pressure of oxygen (pO2), difference as compared with the vehicle group” value [1, 7] was “extremely significantly different”. The “RVI decrease” value ([1]; medium-dose group, 30 mg/kg by gavage, 28 days) was 9.4%, the GI50 ([2]; BaF3-TEL-FGFR2 cells, 72 hours) was 3.26 µM and the “inhibitory effect against FGFR2 (in words)” value ([2]; summary of Table 2) was “no inhibitory effect, or a relatively weak inhibitory effect”. The GI50 ([3]; BaF3-P210-T315I cells, 72 hours) was 5.16 µM, the “inhibitory effect against ABL-T315I (in words)” value ([3]; summary of Table 2) was “no inhibitory effect, or a relatively weak inhibitory effect” and the GI50 ([4]; BaF3-TEL-cKIT cells, 72 hours) was 5.34 µM. The “inhibitory effect against cKIT (in words)” value ([4]; summary of Table 2) was “no inhibitory effect, or a relatively weak inhibitory effect”.
